Measured values taken from article PMC5218480 (PLoS ONE, 2017).

Test system: MV-4-11 cells
Test: Gene expression microarray analysis (Affymetrix PrimeView) and GSEA
Assay type: cell-based, human
Design: RFU PODN (11730768_x_at) / Fold change /veh PODN (11730768_x_at) / RFU LINC00158 (11744669_a_at) / Fold change /veh LINC00158 (11744669_a_at) / RFU DUSP10 (11751237_a_at) / Fold change /veh DUSP10 (11751237_a_at) / RFU ID3 (11757404_x_at) / Fold change /veh ID3 (11757404_x_at) / RFU PLEKHG5 (11737974_s_at) / Fold change /veh PLEKHG5 (11737974_s_at) / RFU LRRC4B (11730491_at) / Fold change /veh LRRC4B (11730491_at) / RFU GIMAP4 (11747438_a_at) / Fold change /veh GIMAP4 (11747438_a_at) / RFU KRT8 (11758183_x_at) / Fold change /veh KRT8 (11758183_x_at) / RFU CNN1 (11734310_a_at) / Fold change /veh CNN1 (11734310_a_at) / RFU VPS37D (11726825_at) / Fold change /veh VPS37D (11726825_at) / RFU C10orf10 (11716522_x_at) / Fold change /veh C10orf10 (11716522_x_at) / RFU KIR2DL2 /// KIR2DL4 /// KIR2DL5A /// KIR2DL5B /// KIR2DS1 /// KIR2DS2 /// KIR2DS3 /// KIR2DS4 /// KIR3DL3 /// KIR3DL3 /// KIR3DS1 (11738374_at) / Fold change /veh KIR2DL2 /// KIR2DL4 /// KIR2DL5A /// KIR2DL5B /// KIR2DS1 /// KIR2DS2 /// KIR2DS3 /// KIR2DS4 /// KIR3DL3 /// KIR3DL3 /// KIR3DS1 (11738374_at) / RFU C1QL1 (11718748_at) / Fold change /veh C1QL1 (11718748_at) / RFU TMPRSS4 (11747572_a_at) / Fold change /veh TMPRSS4 (11747572_a_at) / RFU HAMP (11756126_x_at) / Fold change /veh HAMP (11756126_x_at) / RFU RNFT2 (11725882_a_at) / Fold change /veh RNFT2 (11725882_a_at) / RFU NR4A2 (11747474_a_at) / Fold change /veh NR4A2 (11747474_a_at) / RFU ABCC12 (11746883_a_at) / Fold change /veh ABCC12 (11746883_a_at) / RFU TMEM136 (11760407_x_at) / Fold change /veh TMEM136 (11760407_x_at) / RFU CLDN22 /// WWC2 (11732394_at) / Fold change /veh CLDN22 /// WWC2 (11732394_at) / RFU HLA-DPB1 (11760878_x_at) / Fold change /veh HLA-DPB1 (11760878_x_at) / RFU SPINT1 (11716480_a_at) / Fold change /veh SPINT1 (11716480_a_at) / RFU GAP43 (11754022_s_at) / Fold change /veh GAP43 (11754022_s_at) / RFU A4GNT (11735810_at) / Fold change /veh A4GNT (11735810_at) / RFU PRB3 (11715151_x_at) / Fold change /veh PRB3 (11715151_x_at) / RFU TUBB4B (11761932_at) / Fold change /veh TUBB4B (11761932_at) / RFU CAPN14 (11732068_a_at) / Fold change /veh CAPN14 (11732068_a_at) / RFU TMCC2 (11721928_a_at) / Fold change /veh TMCC2 (11721928_a_at) / RFU IRGQ (11745062_a_at) / Fold change /veh IRGQ (11745062_a_at) / RFU FAM174B (11720279_a_at) / Fold change /veh FAM174B (11720279_a_at) / RFU TMPRSS4 (11748680_a_at) / Fold change /veh TMPRSS4 (11748680_a_at) / RFU FAM212B (11763350_a_at) / Fold change /veh FAM212B (11763350_a_at) / RFU PLEKHG5 (11743358_a_at) / Fold change /veh PLEKHG5 (11743358_a_at) / RFU ZSCAN30 (11745921_a_at) / Fold change /veh ZSCAN30 (11745921_a_at) / RFU CMKLR1 (11741424_a_at) / Fold change /veh CMKLR1 (11741424_a_at) / RFU LOC101060620 /// MAPK8IP1 (11723275_at) / Fold change /veh LOC101060620 /// MAPK8IP1 (11723275_at) / RFU SPTSSB (11747773_x_at) / Fold change /veh SPTSSB (11747773_x_at) / RFU PRSS12 (11739890_at) / Fold change /veh PRSS12 (11739890_at) / RFU BIN1 (11741810_x_at) / Fold change /veh BIN1 (11741810_x_at) / RFU WNT11 (11732464_a_at) / Fold change /veh WNT11 (11732464_a_at) / RFU C10orf10 (11716521_a_at) / Fold change /veh C10orf10 (11716521_a_at) / RFU C5orf56 (11738089_at) / Fold change /veh C5orf56 (11738089_at) / RFU CYB561 (11721691_x_at) / Fold change /veh CYB561 (11721691_x_at) / RFU ANKRD19P (11752326_a_at) / Fold change /veh ANKRD19P (11752326_a_at) / RFU OR2T12 /// OR2T33 /// OR2T8 (11738714_s_at) / Fold change /veh OR2T12 /// OR2T33 /// OR2T8 (11738714_s_at) / RFU VCAN (11748164_a_at) / Fold change /veh VCAN (11748164_a_at) / RFU JSRP1 (11732532_at) / Fold change /veh JSRP1 (11732532_at) / RFU KRTAP10-11 (11738290_x_at) / Fold change /veh KRTAP10-11 (11738290_x_at) / RFU MYO3A (11730013_a_at) / Fold change /veh MYO3A (11730013_a_at) / RFU EBF3 (11725865_a_at) / Fold change /veh EBF3 (11725865_a_at) / RFU CAMK2N1 (11719241_x_at) / Fold change /veh CAMK2N1 (11719241_x_at) / RFU C5orf56 (11738088_a_at) / Fold change /veh C5orf56 (11738088_a_at) / RFU OLFML3 (11715873_a_at) / Fold change /veh OLFML3 (11715873_a_at) / RFU LOC100653217 /// NTM (11731650_a_at) / Fold change /veh LOC100653217 /// NTM (11731650_a_at) / RFU MAPK11 (11762145_a_at) / Fold change /veh MAPK11 (11762145_a_at) / RFU FIZ1 (11724087_x_at) / Fold change /veh FIZ1 (11724087_x_at) / RFU OASL (11726364_x_at) / Fold change /veh OASL (11726364_x_at) / RFU SOX15 (11748057_x_at) / Fold change /veh SOX15 (11748057_x_at) / RFU CD79A (11719716_a_at) / Fold change /veh CD79A (11719716_a_at) / RFU HIST1H1D (11736915_at) / Fold change /veh HIST1H1D (11736915_at) / RFU CASKIN2 (11723855_a_at) / Fold change /veh CASKIN2 (11723855_a_at) / RFU LOC730098 (11760151_x_at) / Fold change /veh LOC730098 (11760151_x_at) / RFU OR4N2 (11742367_at) / Fold change /veh OR4N2 (11742367_at) / RFU PRRT2 (11749266_a_at) / Fold change /veh PRRT2 (11749266_a_at) / RFU SNX32 (11753110_a_at) / Fold change /veh SNX32 (11753110_a_at) / RFU CDHR5 (11726645_a_at) / Fold change /veh CDHR5 (11726645_a_at) / RFU RCAN1 (11760418_a_at) / Fold change /veh RCAN1 (11760418_a_at) / RFU FAM167A (11723789_a_at) / Fold change /veh FAM167A (11723789_a_at) / RFU FAM26E (11764081_at) / Fold change /veh FAM26E (11764081_at) / RFU ISYNA1 (11749810_s_at) / Fold change /veh ISYNA1 (11749810_s_at) / RFU ACY1 (11761880_at) / Fold change /veh ACY1 (11761880_at) / RFU 11764098_at / Fold change /veh 11764098_at / RFU SAMD14 (11745864_x_at) / Fold change /veh SAMD14 (11745864_x_at) / RFU NPB (11741838_a_at) / Fold change /veh NPB (11741838_a_at) / RFU TMPRSS6 (11731388_a_at) / Fold change /veh TMPRSS6 (11731388_a_at) / RFU KRTAP10-2 (11738614_at) / Fold change /veh KRTAP10-2 (11738614_at) / RFU ARHGAP8 /// PRR5-ARHGAP8 (11727945_x_at) / Fold change /veh ARHGAP8 /// PRR5-ARHGAP8 (11727945_x_at) / RFU KRTAP5-7 /// NADSYN1 (11734609_at) / Fold change /veh KRTAP5-7 /// NADSYN1 (11734609_at) / RFU RASL12 (11751679_a_at) / Fold change /veh RASL12 (11751679_a_at) / RFU CDKN2B (11736163_a_at) / Fold change /veh CDKN2B (11736163_a_at) / RFU PRF1 (11729649_at) / Fold change /veh PRF1 (11729649_at) / RFU, ZNF638 /// ZNF638-IT1 / Fold change vs veh, ZNF638 /// ZNF638-IT1 / RFU, PANK3 / Fold change vs veh, PANK3 / RFU, SH3YL1 / Fold change vs veh, SH3YL1 / RFU, ZEB2 / Fold change vs veh, ZEB2 / RFU, NRIP1 / Fold change vs veh, NRIP1 / RFU, PTTG1IP / Fold change vs veh, PTTG1IP / RFU, CAPN2 / Fold change vs veh, CAPN2 / RFU, MED14 / Fold change vs veh, MED14 / RFU, SNORA58 / Fold change vs veh, SNORA58 / RFU, C1orf63 / Fold change vs veh, C1orf63 / RFU, LRRFIP1 / Fold change vs veh, LRRFIP1 / RFU, NDUFAF7 / Fold change vs veh, NDUFAF7 / RFU, SLC12A2 / Fold change vs veh, SLC12A2 / RFU, IBTK / Fold change vs veh, IBTK / RFU, ESF1 / Fold change vs veh, ESF1 / Fold change vs veh, TMEM50B / RFU, TAOK1 / Fold change vs veh, TAOK1 / RFU, ACBD3 / Fold change vs veh, ACBD3 / RFU, TMA16 / Fold change vs veh, TMA16 / RFU, RWDD3 / Fold change vs veh, RWDD3 / RFU, BCAT1 / Fold change vs veh, BCAT1 / RFU, EDEM3 / Fold change vs veh, EDEM3 / RFU, TMEM33 / Fold change vs veh, TMEM33 / RFU, WDR75 / Fold change vs veh, WDR75 / RFU, AHCTF1 / Fold change vs veh, AHCTF1 / RFU, TFRC / Fold change vs veh, TFRC / RFU, ZDHHC17 / Fold change vs veh, ZDHHC17 / RFU, NOM1 / Fold change vs veh, NOM1 / RFU, ARL8B / Fold change vs veh, ARL8B / RFU, ZBTB11 / Fold change vs veh, ZBTB11 / RFU, TAMM41 / Fold change vs veh, TAMM41 / RFU, KIAA1704 /// LOC100996395 / Fold change vs veh, KIAA1704 /// LOC100996395 / RFU, ING1 / Fold change vs veh, ING1 / RFU, TRMT61B / Fold change vs veh, TRMT61B / RFU, FUBP3 / Fold change vs veh, FUBP3 / RFU, TP53 / Fold change vs veh, TP53 / RFU, TNKS2 / Fold change vs veh, TNKS2 / RFU, ZFP14 / Fold change vs veh, ZFP14 / RFU, ACTR2 / Fold change vs veh, ACTR2 / RFU, PPP3R1 / Fold change vs veh, PPP3R1 / RFU, PIK3R1 / Fold change vs veh, PIK3R1 / RFU, HNRNPA1 / Fold change vs veh, HNRNPA1 / RFU, RNF170 / Fold change vs veh, RNF170 / RFU, ZNF28 / Fold change vs veh, ZNF28 / RFU, RNGTT / Fold change vs veh, RNGTT / RFU, OGT / Fold change vs veh, OGT / RFU, BRD1 / Fold change vs veh, BRD1 / RFU, MARS / Fold change vs veh, MARS / RFU, ZNF655 / Fold change vs veh, ZNF655 / RFU, FAHD1 / Fold change vs veh, FAHD1 / RFU, BDP1 / Fold change vs veh, BDP1 / RFU, LRRCC1 / Fold change vs veh, LRRCC1 / RFU, ARID1A / Fold change vs veh, ARID1A / RFU, ZNF146 / Fold change vs veh, ZNF146 / RFU, ZNF330 / Fold change vs veh, ZNF330 / RFU, GPN3 / Fold change vs veh, GPN3 / RFU, C9orf123 / Fold change vs veh, C9orf123 / RFU, N4BP2L2 / Fold change vs veh, N4BP2L2 / RFU, ARFIP1 / Fold change vs veh, ARFIP1 / RFU, FAM179B / Fold change vs veh, FAM179B / RFU, BCL10 / Fold change vs veh, BCL10 / RFU, UHRF1BP1L / Fold change vs veh, UHRF1BP1L / RFU, BET1 / Fold change vs veh, BET1 / RFU, CNOT2 / Fold change vs veh, CNOT2 / RFU, ZNF268 / Fold change vs veh, ZNF268 / Fold change vs veh, ZNF507 / RFU, DGCR2 / Fold change vs veh, DGCR2 / RFU, WDSUB1 / Fold change vs veh, WDSUB1 / Fold change vs veh, HSP90B1 /// MIR3652 / RFU, ADSS / Fold change vs veh, ADSS / RFU, GK / Fold change vs veh, GK / RFU, ZNF148 / Fold change vs veh, ZNF148 / RFU, TAF9 / Fold change vs veh, TAF9 / RFU, SLC1A5 / Fold change vs veh, SLC1A5 / RFU, SLMO2 / Fold change vs veh, SLMO2 / RFU, ABCC4 / Fold change vs veh, ABCC4 / RFU, LOC101060439 /// RAP1B / Fold change vs veh, LOC101060439 /// RAP1B / RFU, RFX7 / Fold change vs veh, RFX7 / RFU, GTPBP10 / Fold change vs veh, GTPBP10 / RFU, CNEP1R1 / Fold change vs veh, CNEP1R1 / RFU, BIVM-ERCC5 /// ERCC5 / Fold change vs veh, BIVM-ERCC5 /// ERCC5 / RFU, ILF3 / Fold change vs veh, ILF3 / RFU 11762660_at / Fold change /veh 11762660_at / RFU VCAN (11757783_s_at) / Fold change /veh VCAN (11757783_s_at) / RFU DDX43 (11728927_at) / Fold change /veh DDX43 (11728927_at) / RFU KRT8 (11758188_x_at) / Fold change /veh KRT8 (11758188_x_at) / RFU NKD1 (11759106_at) / Fold change /veh NKD1 (11759106_at) / RFU SRD5A1 (11742802_a_at) / Fold change /veh SRD5A1 (11742802_a_at) / RFU TPSAB1 /// TPSB2 (11721975_s_at) / Fold change /veh TPSAB1 /// TPSB2 (11721975_s_at) / RFU GSTM3 (11746129_a_at) / Fold change /veh GSTM3 (11746129_a_at) / RFU IL23R (11737362_x_at) / Fold change /veh IL23R (11737362_x_at) / RFU TMEM51 (11727254_a_at) / Fold change /veh TMEM51 (11727254_a_at) / RFU PIWIL2 (11732686_x_at) / Fold change /veh PIWIL2 (11732686_x_at) / RFU ORM1 (11744905_x_at) / Fold change /veh ORM1 (11744905_x_at) / RFU CCDC152 (11743942_at) / Fold change /veh CCDC152 (11743942_at) / RFU ECM1 (11717891_a_at) / Fold change /veh ECM1 (11717891_a_at) / RFU IL23R (11748794_a_at) / Fold change /veh IL23R (11748794_a_at) / RFU TNFAIP8L3 (11732012_x_at) / Fold change /veh TNFAIP8L3 (11732012_x_at) / RFU MBOAT4 (11741988_at) / Fold change /veh MBOAT4 (11741988_at) / RFU 11764193_at / Fold change /veh 11764193_at / RFU TMEM53 (11763286_at) / Fold change /veh TMEM53 (11763286_at) / RFU MAGEB2 (11727129_at) / Fold change /veh MAGEB2 (11727129_at) / RFU TMEM200A (11744735_a_at) / Fold change /veh TMEM200A (11744735_a_at) / RFU CCDC152 (11751479_a_at) / Fold change /veh CCDC152 (11751479_a_at) / RFU FAM211A (11726209_a_at) / Fold change /veh FAM211A (11726209_a_at) / RFU RGS16 (11746705_a_at) / Fold change /veh RGS16 (11746705_a_at) / RFU VCAN (11755009_s_at) / Fold change /veh VCAN (11755009_s_at) / RFU RHOB (11743442_s_at) / Fold change /veh RHOB (11743442_s_at) / RFU RGS16 (11720943_a_at) / Fold change /veh RGS16 (11720943_a_at) / RFU RGS16 (11720944_at) / Fold change /veh RGS16 (11720944_at) / RFU, VPS4B / Fold change vs veh, VPS4B / RFU, CREB1 / Fold change vs veh, CREB1 / RFU, DNAJC13 / Fold change vs veh, DNAJC13 / RFU, GNAQ / Fold change vs veh, GNAQ / RFU, CDK5R1 / Fold change vs veh, CDK5R1 / RFU, ZRANB3 / Fold change vs veh, ZRANB3 / RFU, CUL4A / Fold change vs veh, CUL4A / RFU, CCNY / Fold change vs veh, CCNY / RFU, UFL1 / Fold change vs veh, UFL1 / RFU, COG3 / Fold change vs veh, COG3 / RFU, DIAPH2 / Fold change vs veh, DIAPH2 / RFU, SKA2 / Fold change vs veh, SKA2 / RFU, AFF3 / Fold change vs veh, AFF3 / RFU, LMF1 / Fold change vs veh, LMF1 / RFU, IPO11 / Fold change vs veh, IPO11 / RFU, DFFB / Fold change vs veh, DFFB / RFU, FOXP1 / Fold change vs veh, FOXP1 / RFU, CARD8 / Fold change vs veh, CARD8 / RFU, STRN3 / Fold change vs veh, STRN3 / RFU, ADK / Fold change vs veh, ADK / RFU, RASSF2 / Fold change vs veh, RASSF2 / RFU, WIPF1 / Fold change vs veh, WIPF1 / RFU, LARP1B / Fold change vs veh, LARP1B / RFU, RASA1 / Fold change vs veh, RASA1 / RFU, RB1 / Fold change vs veh, RB1 / RFU, PPFIA1 / Fold change vs veh, PPFIA1 / RFU, MAT2A / Fold change vs veh, MAT2A / RFU, CCT5 / Fold change vs veh, CCT5 / RFU, WDR92 / Fold change vs veh, WDR92 / RFU, CUX1 / Fold change vs veh, CUX1 / RFU, TTC7A / Fold change vs veh, TTC7A / RFU, TMEM135 / Fold change vs veh, TMEM135 / RFU, DEPTOR / Fold change vs veh, DEPTOR / RFU, CPM / Fold change vs veh, CPM / RFU, DNAJB6 / Fold change vs veh, DNAJB6 / RFU, CACNA2D3 / Fold change vs veh, CACNA2D3 / RFU, DTX4 / Fold change vs veh, DTX4 / RFU, TFCP2 / Fold change vs veh, TFCP2 / RFU, GMCL1 /// GMCL1P1 / Fold change vs veh, GMCL1 /// GMCL1P1 / RFU, AEBP2 / Fold change vs veh, AEBP2 / RFU, SNHG1 /// SNORD22 /// SNORD25 /// SNORD26 /// SNORD27 /// SNORD28 /// SNORD29 /// SNORD31 / Fold change vs veh, SNHG1 /// SNORD22 /// SNORD25 /// SNORD26 /// SNORD27 /// SNORD28 /// SNORD29 /// SNORD31 / Fold change (Aza/veh), C12orf56 (ProbeSet 11735607_a_at) / Fold change (ACY-1035/veh), C12orf56 (ProbeSet 11735607_a_at) / Fold change (Aza/veh), FGFR1OP (ProbeSet 11751329_s_at) / Fold change (ACY-1035/veh), FGFR1OP (ProbeSet 11751329_s_at) / Fold change (Aza/veh), VPS36 (ProbeSet 11739960_a_at) / Fold change (ACY-1035/veh), VPS36 (ProbeSet 11739960_a_at) / RFU SYPL1 (11715823_x_at) / Fold change /veh SYPL1 (11715823_x_at) / RFU IGFBP7 (11715501_s_at) / Fold change /veh IGFBP7 (11715501_s_at) / RFU REEP3 (11722064_at) / Fold change /veh REEP3 (11722064_at) / RFU IGLL1 (11728026_x_at) / Fold change /veh IGLL1 (11728026_x_at): dose or concentration left out as unconfirmed
Conditions: MV-4-11 cells, 48 hours

## Nc1ncn([C@@H]2O[C@H](CO)[C@@H](O)[C@H]2O)c(=O)n1 [azacitidine]
  Fold change /veh TUBB4B (11761932_at): 1.00
